Results reported in publication PMC11597817, “Modulation of Multispecific Transporters by Uncaria tomentosa Extract and Its Major Phytoconstituents” (Pharmaceutics, 2024).
Read-outs that look alike come from different tables or passages of the source.

Columns and labels:
[1] = target: T1, SGLT2 (Homo sapiens, UniProt P31639); experiment: Uptake inhibition assay, SGLT2-overexpressing HEK293 cells; type: cell-based
T1 construct: expressed in transfected cells; host or cells: HEK293 (lentiviral transduction; cDNA synthesised by GenScript)
T1 sequence (P31639 whole entry): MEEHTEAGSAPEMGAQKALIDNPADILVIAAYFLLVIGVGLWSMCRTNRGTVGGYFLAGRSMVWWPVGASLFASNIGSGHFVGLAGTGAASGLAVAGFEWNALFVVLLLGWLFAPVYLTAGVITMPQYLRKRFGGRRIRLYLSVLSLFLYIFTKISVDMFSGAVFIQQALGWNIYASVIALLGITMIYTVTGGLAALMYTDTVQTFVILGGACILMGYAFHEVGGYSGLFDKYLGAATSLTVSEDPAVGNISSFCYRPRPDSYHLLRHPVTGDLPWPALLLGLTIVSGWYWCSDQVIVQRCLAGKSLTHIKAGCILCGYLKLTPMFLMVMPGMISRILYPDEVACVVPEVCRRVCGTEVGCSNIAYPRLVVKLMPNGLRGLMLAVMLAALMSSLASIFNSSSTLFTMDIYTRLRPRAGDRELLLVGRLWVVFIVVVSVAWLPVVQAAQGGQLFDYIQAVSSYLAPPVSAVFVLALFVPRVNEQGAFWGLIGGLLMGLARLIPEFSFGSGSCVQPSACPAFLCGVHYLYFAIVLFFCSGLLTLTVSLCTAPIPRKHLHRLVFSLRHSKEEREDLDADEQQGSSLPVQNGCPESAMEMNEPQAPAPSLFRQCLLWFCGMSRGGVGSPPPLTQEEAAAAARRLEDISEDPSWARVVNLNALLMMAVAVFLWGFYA
Description: (§1) The human embryonic kidney 293 (HEK293) cell line was purchased from Invitrogen/ThermoFisher (Waltham, MA, USA). Madin–Darby canine kidney II (MDCKII) wild type cells were obtained from the European Collection of Authenticated Cell Cultures (ECACC catalog no. 00062107). […]
(§2) Plated cells were preincubated with a transport buffer (HBSS) containing 30 or 150 µg/mL of UT extract or 100 µM of isopteropodine, mitraphylline, or uncarine D for 15 min at an appropriate temperature. […] For radiolabeled substrates, accumulation was measured by liquid scintillation counting (MicroBeta Scintillation Counter, PerkinElmer).
(§3) The transporter-mediated uptake and ATP-dependent transport were determined by subtracting the activity of the control cell/transporter abundant-membrane in the presence of AMP from the activity of the transporter-overexpressing cell/transporter-abundant membrane in the presence of ATP. The relative transporter-specific accumulation was expressed as the percent of DMSO activity. […] Confidence intervals (CIs) of 95% were also determined. […]

[2] = target: T2, OCT1 (Homo sapiens, UniProt O15245); experiment: Uptake inhibition assay, OCT1-overexpressing HEK293 cells; type: cell-based; details: oxindole alkaloids, substrate metformin, read-out: IC50 (95% CI of IC50)
T2 construct: expressed in transfected cells; host or cells: HEK293 (lentiviral transduction; cDNA synthesised by GenScript)
T2 sequence (O15245 1-554): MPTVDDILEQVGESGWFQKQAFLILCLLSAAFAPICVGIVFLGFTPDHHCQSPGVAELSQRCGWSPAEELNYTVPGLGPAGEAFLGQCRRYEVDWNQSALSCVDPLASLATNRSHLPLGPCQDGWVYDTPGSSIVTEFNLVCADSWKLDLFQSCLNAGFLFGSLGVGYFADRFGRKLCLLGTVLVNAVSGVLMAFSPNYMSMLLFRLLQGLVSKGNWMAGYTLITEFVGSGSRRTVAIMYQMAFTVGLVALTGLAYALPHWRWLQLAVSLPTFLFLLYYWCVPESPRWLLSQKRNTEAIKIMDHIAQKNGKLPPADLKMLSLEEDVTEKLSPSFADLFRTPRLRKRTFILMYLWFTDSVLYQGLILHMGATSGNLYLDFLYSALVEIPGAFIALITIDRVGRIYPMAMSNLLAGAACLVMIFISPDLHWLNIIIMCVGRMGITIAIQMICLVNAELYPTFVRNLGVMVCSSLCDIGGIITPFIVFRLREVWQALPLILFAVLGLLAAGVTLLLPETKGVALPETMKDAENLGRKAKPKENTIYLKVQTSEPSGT
From the text: The human embryonic kidney 293 (HEK293) cell line was purchased from Invitrogen/ThermoFisher (Waltham, MA, USA). Madin–Darby canine kidney II (MDCKII) wild type cells were obtained from the European Collection of Authenticated Cell Cultures (ECACC catalog no. 00062107). HEK293 cells overexpressing the human uptake OATP1B1 (NCBI Reference Sequence: NM_006446.4), OATP1B3 (NM_019844), OATP2B1 (NM_007256), OATP1A2 (NM_134431), OAT1-3 (BC033682.1; NM_006672.3; BC022387), OCT1-3 (BC126364.1; NM_003058; NM_021977), OCTN1 (NM_003059.3), NTCP (NM_003049.3), MATE1 (NM_018242.3), MATE2K (NM_001099646.2), ENT4 (NM_001040661.1), SGLT2 (AJ133127.1), ASCT1/2 (NM_003038.5; NM_005628.3), LAT1/2 (NM_003486.6; NM_012244.4), and THTR1/2 (NM_006996; NM_025243) and mock and human efflux BCRP (NM_004827.2), BSEP (NM_003742.2), MDR1 (NM_000927.4), and MRP1-5 (NM_004996; NM_000392.4; BC137347.1; NM_005845.4; NM_005688.2) transporters as well as MDCKII overexpressing human ENT1/2 (NM_001078177; NM_001532.2) and URAT1 (BC053348) transporters were created by lentiviral transduction. The cDNA encoding respective transporters were synthetized and cloned by GenScript (Piscataway, NJ, USA). The production of lentivirus supernatants, the transduction of the cells, cloning, functional characterization, and validation were performed by Charles River Laboratories Hungary Kft. (Budapest, Hungary).
Cell cultures were maintained in Dulbecco’s modified Eagle’s medium (DMEM), 4.5 g/L of glucose, supplemented with GlutaMAX^TM, 2.5 v/v % penicillin/streptomycin, and 10% fetal bovine serum (FBS) at 37 °C, 5% CO2, and 90% relative humidity. The medium was replaced two or three times per week; cells were harvested using TrypLE™ Express (ThermoFisher) at 80 to 90% confluence and passaged or seeded. HEK293 cells of passage < 12 (from thawing) and MDCKII cells of passage < 18 were seeded at a density of 1 × 10^5 cells/well onto poly-D-lysine-coated or -non-coated 96-well plates and incubated for 18–22 h prior to inhibition assays.
as §2, §3

[3] = target: T3, OCT2 (Homo sapiens, UniProt O15244); experiment: Uptake inhibition assay, OCT2-overexpressing HEK293 cells; type: cell-based; details: oxindole alkaloids; substrate metformin; read-out: IC50 (95% CI of IC50)
T3 construct: expressed in transfected cells; host or cells: HEK293 (lentiviral transduction; cDNA synthesised by GenScript)
T3 sequence (O15244 whole entry): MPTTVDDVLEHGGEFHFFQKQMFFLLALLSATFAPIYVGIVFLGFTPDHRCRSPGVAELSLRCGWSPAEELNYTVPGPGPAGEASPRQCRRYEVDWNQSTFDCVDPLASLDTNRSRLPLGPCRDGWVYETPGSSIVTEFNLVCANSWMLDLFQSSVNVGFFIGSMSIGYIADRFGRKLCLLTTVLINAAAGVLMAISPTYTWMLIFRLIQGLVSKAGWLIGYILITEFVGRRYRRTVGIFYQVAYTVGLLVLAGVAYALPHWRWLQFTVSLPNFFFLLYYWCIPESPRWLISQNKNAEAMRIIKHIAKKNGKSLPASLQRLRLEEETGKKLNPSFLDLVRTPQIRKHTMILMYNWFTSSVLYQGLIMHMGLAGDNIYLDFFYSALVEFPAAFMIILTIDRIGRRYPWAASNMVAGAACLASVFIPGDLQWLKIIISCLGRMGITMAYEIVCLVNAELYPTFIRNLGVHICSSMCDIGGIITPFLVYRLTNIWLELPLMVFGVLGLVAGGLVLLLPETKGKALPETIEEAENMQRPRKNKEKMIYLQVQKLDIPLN
Description: as §1, §2, §3

[4] = target: T4, OAT3 (Homo sapiens, UniProt Q8TCC7); experiment: Uptake inhibition assay, OAT3-overexpressing HEK293 cells; type: cell-based; details: oxindole alkaloids, substrate E3S, read-out: IC50 (95% CI of IC50)
T4 construct: expressed in transfected cells; host or cells: HEK293 (lentiviral transduction; cDNA synthesised by GenScript)
T4 sequence (Q8TCC7 whole entry): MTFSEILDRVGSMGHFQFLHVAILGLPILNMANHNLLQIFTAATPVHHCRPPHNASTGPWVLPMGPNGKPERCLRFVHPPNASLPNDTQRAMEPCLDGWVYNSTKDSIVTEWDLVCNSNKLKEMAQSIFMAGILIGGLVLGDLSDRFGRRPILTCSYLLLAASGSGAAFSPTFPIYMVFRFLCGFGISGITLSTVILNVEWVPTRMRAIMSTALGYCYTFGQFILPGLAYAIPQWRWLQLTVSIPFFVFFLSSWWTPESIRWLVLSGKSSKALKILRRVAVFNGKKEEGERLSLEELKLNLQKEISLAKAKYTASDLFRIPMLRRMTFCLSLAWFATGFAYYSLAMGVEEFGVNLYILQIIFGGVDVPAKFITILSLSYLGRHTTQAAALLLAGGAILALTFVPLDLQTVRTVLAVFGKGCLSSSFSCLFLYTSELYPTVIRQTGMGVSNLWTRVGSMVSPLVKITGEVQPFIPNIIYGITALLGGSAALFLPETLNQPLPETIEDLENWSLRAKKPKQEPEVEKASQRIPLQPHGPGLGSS
Description: as §1, §2, §3

[5] = target: T5, OAT1 (Homo sapiens, UniProt Q4U2R8); experiment: Uptake inhibition assay, OAT1-overexpressing HEK293 cells; type: cell-based; details: at 100 µM
T5 construct: expressed in transfected cells; host or cells: HEK293 (lentiviral transduction; cDNA synthesised by GenScript)
T5 sequence (Q4U2R8 whole entry): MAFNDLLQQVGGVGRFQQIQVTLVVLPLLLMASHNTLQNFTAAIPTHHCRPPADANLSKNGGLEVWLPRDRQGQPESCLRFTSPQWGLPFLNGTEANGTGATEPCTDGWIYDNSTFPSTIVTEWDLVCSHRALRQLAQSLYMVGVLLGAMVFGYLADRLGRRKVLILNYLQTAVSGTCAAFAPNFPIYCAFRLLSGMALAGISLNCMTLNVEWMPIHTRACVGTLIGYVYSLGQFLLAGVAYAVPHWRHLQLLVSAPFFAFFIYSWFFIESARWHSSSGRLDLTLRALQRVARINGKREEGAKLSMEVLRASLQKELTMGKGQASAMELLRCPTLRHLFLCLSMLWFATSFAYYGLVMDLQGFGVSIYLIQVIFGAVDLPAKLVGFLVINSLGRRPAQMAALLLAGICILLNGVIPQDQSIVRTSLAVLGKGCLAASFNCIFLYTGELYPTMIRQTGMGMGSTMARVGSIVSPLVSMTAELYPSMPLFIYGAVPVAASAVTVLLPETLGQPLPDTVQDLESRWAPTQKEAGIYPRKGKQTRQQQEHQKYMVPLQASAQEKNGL
Description: as §1, §2, §3

[6] = target: T6, OATP2B1 (Homo sapiens, UniProt O94956); experiment: Uptake inhibition assay, OATP2B1-overexpressing HEK293 cells; type: cell-based; details: oxindole alkaloids, substrate E3S, read-out: IC50 (95% CI of IC50)
T6 construct: expressed in transfected cells; host or cells: HEK293 (lentiviral transduction; cDNA synthesised by GenScript)
T6 sequence (O94956 whole entry): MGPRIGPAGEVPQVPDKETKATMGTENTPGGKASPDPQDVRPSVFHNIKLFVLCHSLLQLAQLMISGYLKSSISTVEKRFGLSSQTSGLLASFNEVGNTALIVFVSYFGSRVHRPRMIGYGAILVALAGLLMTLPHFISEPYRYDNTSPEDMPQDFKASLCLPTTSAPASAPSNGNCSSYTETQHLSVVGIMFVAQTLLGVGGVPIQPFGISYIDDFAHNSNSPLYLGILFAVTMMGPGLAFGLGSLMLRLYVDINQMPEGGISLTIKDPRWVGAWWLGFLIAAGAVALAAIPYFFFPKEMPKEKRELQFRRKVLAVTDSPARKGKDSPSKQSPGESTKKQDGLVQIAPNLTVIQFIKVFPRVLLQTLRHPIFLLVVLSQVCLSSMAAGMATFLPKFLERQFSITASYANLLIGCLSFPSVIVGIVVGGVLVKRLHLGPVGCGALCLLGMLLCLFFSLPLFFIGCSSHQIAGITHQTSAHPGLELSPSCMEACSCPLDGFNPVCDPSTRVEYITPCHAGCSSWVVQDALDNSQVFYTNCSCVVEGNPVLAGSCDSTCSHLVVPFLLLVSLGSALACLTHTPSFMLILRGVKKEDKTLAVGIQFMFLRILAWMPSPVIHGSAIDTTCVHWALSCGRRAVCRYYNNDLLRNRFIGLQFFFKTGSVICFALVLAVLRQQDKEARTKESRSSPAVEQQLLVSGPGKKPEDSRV
Description: as §1, §2, §3

[7] = system: MDR1; details: MDR1-overexpressing MDCKII cells and Caco-2 cells; cited from earlier work

| Compound | decrease of transporter-mediated transport ([1]; at 100 µM) | IC50 ([1]; oxindole alkaloids, substrate AMG, read-out: IC50 (95% CI of IC50)) [µM] | IC50 ([2]; listed as Isopteropodine) [µM] | IC50 [2] [µM] | IC50 [3] [µM] | IC50 ([4]; listed as Isopteropodine) [µM] | IC50 [4] [µM] | decrease of transporter-mediated transport [5] | IC50 ([6]; listed as Isopteropodine) [µM] | IC50 [6] [µM] | IC50 ([2]; listed as Mitraphylline) [µM] | MDR1 substrate status [7] |
| --- | --- | --- | --- | --- | --- | --- | --- | --- | --- | --- | --- | --- |
| COC(=O)C1=CO[C@@H](C)[C@@H]2CN3CC[C@@]4(C(=O)Nc5ccccc54)[C@@H]3C[C@H]12 [isopteropodine] | around 50% | 72.7 | 2.81 | 2.8 | 16.1 | 46.5 | 46.5 | around 50% | 45.4 | 45.4 | – | – |
| COC(=O)C1=CO[C@@H](C)[C@H]2CN3CC[C@]4(C(=O)Nc5ccccc54)[C@@H]3C[C@H]12 [mitraphylline] | – | – | – | 7.1 | – | – | – | – | – | – | 7.05 | MDR1 substrate |
